Laboratory results from patent US9814759B2, “Pharmaceutical composition comprising recombinant hemoglobin protein or subunit-based therapeutic agent for cancer targeting treatment” (Cheer Global Ltd., priority 2014, dated 2017).

Columns and labels:
[1] = tested on: liver cancer cells (HepG2); test: Live cell time-lapse microscopy, uptake of fluorescent labeled hemoglobin subunits in cancer cells; type: cell-based; conditions: with heme (+) or without heme (−), 0.1% O2, FIG. 10
Source text: The pharmaceutical composition of the present invention comprises recombinant hemoglobin protein or recombinant hemoglobin tetramer or dimer or subunit-based therapeutic agent capable of both targeting and killing the cancer cells. […] The fluorescent labeled recombinant hemoglobin subunits can also enter into the cancer cells (e.g., liver cancer cells, HepG2) and localize in there, and the result is illustrated in FIG. 10. It is expected that the chemically modified recombinant hemoglobin protein or tetramer or dimer or subunit-based therapeutic agent can also kill the cancer cells and progenitor cells/cancer stem cells effectively.
Cancer cells (HepG2) are cultured in DMEM (Invitrogen) with 10% Fetal bovine serum (FBS), 100 U/mL penicillin and 100 μg/mL streptomycin at 37° C. For normoxic condition, cells are incubated with ambient O2 concentration and 5% CO2; for hypoxic condition, cells are incubated with 0.1-0.5% O2 (Quorum FC-7 automatic CO2/O2/N2 gas mixer) and 5% CO2.
Cancer cells (e.g. HepG2 liver cancer cells) are seeded onto glass bottom microwell dishes (MatTek Corporation). Live cells at defined zooms (63×, 20×) are acquired using Zeiss Observer Z1 widefield microscope, equipped with atmospheric/temperature-controlled chamber and motorized stage for multi-positional acquisition. The incubation is performed in an enclosed live cell imaging system purged with 0.1% O2 and 5% CO2 (premixed). Cells are exposed to the fluorescent labeled recombinant hemoglobin subunits (α, β, γ1, γ2); for 15 min prior to the acquisition of images every 3 min for a period of 2 h. Images are deconvolved and compacted into time-lapse movies using the MetaMorph software (Molecular Device).

[2] = HPLC analysis of disulfide bond cleavage under reducing condition (GSH); type: physicochemical; conditions: PBS buffer (pH 7.4), 37° C., GSH 0.4-1000 equiv, 0-2 hrs
Source text: The glutathione (GSH) level is much higher in the cytoplasm of cancer cells (˜1000 equiv) when compared to blood stream (˜1 equiv). A therapeutic drug with a disulfide bond can be cleaved much more easily in the cytoplasm of cancer cells with high concentration of GSH. A high-performance liquid chromatography (HPLC) analysis for the cleavage of model compound (N-(2-mercaptoethyl)benzamide) with disulfide bond under reducing condition is shown in FIG. 12. The cleavage of model compound is observed in PBS buffer (pH 7.4) at 37° C. with different concentration of glutathione (GSH) (0.4-1000 equiv). […] In the present invention, the recombinant hemoglobin protein or recombinant hemoglobin tetramer or dimer or subunit linked with a therapeutic drug (e.g. chemotherapeutic agent, radiotherapeutic agent, anti-cancer protein drug) by a disulfide bond is prepared for cancer treatment.

[3] = native human hemoglobin, comparison value; cited from earlier work

In the case of “γ1: recombinant human hemoglobin monomer γ1 (146 amino acids), with or without heme”, the “entry into / uptake by liver cancer cells” value (“entry into / uptake” for short) [1] is reported as “can enter into liver cancer cells (HepG2) successfully”.

With “γ2: recombinant human hemoglobin monomer γ2 (146 amino acids), with or without heme” the “entry into / uptake” value [1] was “can enter into liver cancer cells (HepG2) successfully”.

For “α: recombinant human hemoglobin monomer α (141 amino acids), with or without heme”, the “entry into / uptake” value [1] was “can enter into liver cancer cells (HepG2) successfully”.

For “β: recombinant human hemoglobin monomer β (146 amino acids), with or without heme”, the “entry into / uptake” value [1] was “can enter into liver cancer cells (HepG2) successfully”.

For O=C(NCCS)c1ccccc1 [model compound, N-(2-mercaptoethyl)benzamide], the “cleavage of disulfide bond at different GSH levels” value [2] was “better at high concentration of GSH (>50 equiv)”.

For “native human hemoglobin: native human hemoglobin, comparison for p50”, the “p50 value (oxygen partial pressure necessary to produce 50 percent saturation of hemoglobin)” value [3] is listed as 23-30 mm Hg.
